Experimental data published in PMC8745223, “Novel 1,3,5-Triazinyl Aminobenzenesulfonamides Incorporating Aminoalcohol, Aminochalcone and Aminostilbene Structural Motifs as Potent Anti-VRE Agents, and Carbonic Anhydrases I, II, VII, IX, and XII Inhibitors” (International Journal of Molecular Sciences, 2021).
Values after ≈ are worked out from the molar mass of the structure shown.

Experiments:
[1] = test system: T1, E. faecalis ATCC 29212 (EF); assay: microbe, parasite or virus in culture; parameters: broth microdilution MIC in BHI, Alamar Blue read-out, 37 °C; conditions: Enterococcus faecalis, ATCC29212, 24 h
T1 construct: ATCC 29212
Experimental: (§1) The inhibition activity against enterococci was evaluated by the microtitration broth method according to the Clinical and Laboratory Standards Institute with some modifications. The compounds were dissolved in DMSO and serially diluted in Brain Hearth Infusion (BHI) to reach concentrations 256–2 µg/mL. […] The experiment was repeated at least three times. All the investigated compounds were tested on their anti-staphylococcal activity against three clinical isolates of methicillin-resistant Staphylococcus aureus (MRSA) and S. aureus ATCC 29213 as the reference and quality control strain.

[2] = target: T2, hCA I (Homo sapiens, UniProt P00915); assay: stopped-flow CO2 hydration assay; format: biochemical
T2 construct: gene CA1; recombinant
T2 sequence (P00915 2-261): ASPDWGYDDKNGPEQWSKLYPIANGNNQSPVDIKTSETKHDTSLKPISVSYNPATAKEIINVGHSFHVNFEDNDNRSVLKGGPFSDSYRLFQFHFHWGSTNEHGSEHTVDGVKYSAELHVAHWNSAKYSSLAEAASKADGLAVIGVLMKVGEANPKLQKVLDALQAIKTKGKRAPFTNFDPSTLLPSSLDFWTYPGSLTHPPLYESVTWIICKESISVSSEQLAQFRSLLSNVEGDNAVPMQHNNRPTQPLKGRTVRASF
Outline: (§2)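 A stopped-flow method tracked CO2 hydration by recombinant human carbonic anhydrase for 10–100 s, using 0.2 mM phenol red (557 nm), 20 mM Hepes pH 7.5, 20 mM Na2SO4 and 1.7–17 mM CO2. Before the assay, enzyme and inhibitor (diluted to 0.005 nM in buffer) were preincubated for 15 min at room temperature. Initial rates came from at least six traces after subtraction of uncatalysed rates, and each value is the mean of three or more determinations. Ki was obtained by non-linear least-squares fitting with the Cheng–Prusoff equation.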

[3] = target: T3, hCA VII (Homo sapiens, UniProt P43166); assay: stopped-flow CO2 hydration assay; format: biochemical
T3 construct: gene CA7; recombinant
T3 sequence (P43166 whole entry): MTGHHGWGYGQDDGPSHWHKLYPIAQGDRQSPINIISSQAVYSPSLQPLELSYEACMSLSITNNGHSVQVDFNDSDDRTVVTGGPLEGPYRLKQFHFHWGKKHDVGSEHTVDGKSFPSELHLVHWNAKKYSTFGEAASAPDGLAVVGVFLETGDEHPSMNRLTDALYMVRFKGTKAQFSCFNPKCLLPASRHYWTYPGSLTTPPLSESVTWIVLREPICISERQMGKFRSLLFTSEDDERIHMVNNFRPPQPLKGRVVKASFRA
Outline: as §2

[4] = test system: T4, Enterococcus faecalis VRE 342 B; assay: organism not typed; parameters: broth microdilution MIC in BHI, Alamar Blue read-out, 37 °C; conditions: 24 h
T4 construct: VRE 342 B (vanA clinical isolate)
Experimental: as §1

[5] = test system: T5, Enterococcus faecalis VRE 368; assay: organism not typed; parameters: broth microdilution MIC in BHI, Alamar Blue read-out, 37 °C; conditions: 24 h
T5 construct: VRE 368 (vanA clinical isolate)
Experimental: as §1

[6] = test system: T6, Enterococcus faecalis VRE 725 B; assay: organism not typed; parameters: broth microdilution MIC in BHI, Alamar Blue read-out, 37 °C; conditions: 24 h
T6 construct: VRE 725B (vanA clinical isolate)
Experimental: as §1, with “strain. […] All the compounds were tested against Enterococcus faecalis ATCC 29212 as the reference strain and three isolates from American crows of vanA-carrying vancomycin-resistant E. faecalis (VRE), and the activities, expressed as minimum inhibitory concentrations (MICs), are listed in Table 3.” for “strain.”

[7] = stopped-flow CO2 hydration assay; format: biochemical, Homo sapiens; conditions: read-out: KI (nM) ^a / hCA I
Outline: as §2

[8] = target: T7, hCA II (Homo sapiens, UniProt P00918); assay: stopped-flow CO2 hydration assay; format: biochemical
T7 construct: gene CA2; recombinant
Outline: as §2

[9] = test system: T1, E. faecalis ATCC 29212 (EF); assay: microbe, parasite or virus in culture; parameters: broth microdilution MIC in BHI, Alamar Blue read-out, 37 °C; conditions: Enterococcus faecalis, ATCC29212, 24 h; remark: listed apart in the source
Experimental: as §1, with “strain. […] All the compounds were tested against Enterococcus faecalis ATCC 29212 as the reference strain and three isolates from American crows of vanA-carrying vancomycin-resistant E. faecalis (VRE), and the activities, expressed as minimum inhibitory concentrations (MICs), are listed in Table 3.” for “strain.”

[10] = test system: T4, Enterococcus faecalis VRE 342 B; assay: organism not typed; parameters: broth microdilution MIC in BHI, Alamar Blue read-out, 37 °C; conditions: 24 h; remark: listed apart in the source
Experimental: as §1, with “strain. […] All the compounds were tested against Enterococcus faecalis ATCC 29212 as the reference strain and three isolates from American crows of vanA-carrying vancomycin-resistant E. faecalis (VRE), and the activities, expressed as minimum inhibitory concentrations (MICs), are listed in Table 3.” for “strain.”

[11] = test system: T5, Enterococcus faecalis VRE 368; assay: organism not typed; parameters: broth microdilution MIC in BHI, Alamar Blue read-out, 37 °C; conditions: 24 h; remark: listed apart in the source
Experimental: as §1, with “strain. […] All the compounds were tested against Enterococcus faecalis ATCC 29212 as the reference strain and three isolates from American crows of vanA-carrying vancomycin-resistant E. faecalis (VRE), and the activities, expressed as minimum inhibitory concentrations (MICs), are listed in Table 3.” for “strain.”

[12] = target: T2, hCA I; assay: biochemical; parameters: stopped-flow CO2 hydration assay, phenol red indicator at 557 nm, 15 min preincubation with inhibitor
Experimental: (§3) AnSX.18MV-R Applied Photophysics stopped-flow instrument (Applied Photophysics, Leatherhead, UK) has been used for assaying the CA catalyzed CO2 hydration activity. Phenol red (at a concentration of 0.2 mM) has been used as an indicator, working at the absorbance maximum of 557 nm, with 20 mM Hepes (pH 7.5) as a buffer and 20 mM Na2SO4 (for maintaining constant the ionic strength), following the CA-catalyzed CO2 hydration reaction for a period of 10–100 s. The CO2 concentrations ranged from 1.7 to 17 mM for the determination of the kinetic parameters and inhibition constants. For each inhibitor, at least six traces of the initial 5–10% of the reaction were used for determining the initial velocity. The uncatalyzed rates were determined in the same manner and were subtracted from the total observed rates. Stock solutions of the inhibitor (0.1 mM) were prepared in distilled-deionized water, and dilutions up to 0.005 nM were done thereafter with the assay buffer. Inhibitor and enzyme solutions were preincubated together for 15 min at room temperature prior to assay in order to allow for the formation of the E–I complex. The inhibition constants were obtained by non-linear least-squares methods using PRISM 3 and the ChengPrusoff equation, as reported earlier, and represent the mean from at least three different determinations. All CA isoforms were recombinant ones and were prepared as reported earlier. Errors in the range of 5–10% of the reported value (Mean from three different assays, by stopped-flow technique). The presence of aminobenzenesulfonamide structural moiety in the structure of target compounds 1–44 can cause inhibition activity in these compounds against human carbonic anhydrases. The inhibition of physiologically relevant hCA I and hCA II can lead to various undesirable side effects. On the other hand, the inhibition of tumor-associated isoenzymes hCA IX and hCA XII could be a great benefit in tumor treatment. Inhibition of isoenzyme hCA VII, which is presented mostly in the brain, can be a new approach for the treatment of epilepsy or chronic neuropathic pain [42, 43]. Compounds 1–44 were evaluated as potential inhibitors of hCA I, hCA II, hCA VII, hCA IX, and hCA XII. The inhibition activities against individual hCAs were determined by methodology based on stopped-flow assay. For completeness, Table 2 also includes the previously published inhibition activities of compounds 2, 3, 5–12 and 18–19. Values of KIs were compared with clinically used sulfonamides as standards—AAZ (acetazolamide), BRZ (brinzolamide), DCP (dichlorphenamide), DZA (dorzolamide), EZA (ethoxzolamide), MZA (methazolamide), and IND (indisulam; canceled in clinical trials).

[13] = target: T7, hCA II; assay: biochemical; parameters: stopped-flow CO2 hydration assay, phenol red indicator at 557 nm, 15 min preincubation with inhibitor
Experimental: as §3

[14] = target: T3, hCA VII; assay: biochemical; parameters: stopped-flow CO2 hydration assay, phenol red indicator at 557 nm, 15 min preincubation with inhibitor
Experimental: as §3

[15] = target: T8, hCA IX (Homo sapiens, UniProt Q16790); assay: biochemical; parameters: stopped-flow CO2 hydration assay, phenol red indicator at 557 nm, 15 min preincubation with inhibitor
T8 construct: gene CA9; recombinant
Experimental: as §3

## NS(=O)(=O)c1ccc(CCNc2nc(Nc3ccc(O)cc3)nc(Nc3ccc(C(=O)/C=C/c4ccccc4)cc3)n2)cc1 [compound 21, (E)-4-[2-({4-[(4-Cinnamoylphenyl)amino]-6-[(4-hydroxyphenyl)amino]-1,3,5-triazin-2-yl}amino)ethyl]benzenesulfonamide]
[1]
  MIC: 26.3 µM (≈ 16 µg/mL)
[2]
  Ki: > 10000 nM
[3]
  Ki: 810 nM
[4]
  MIC: 26.3 µM (≈ 16 µg/mL)
[5]
  MIC: 26.3 µM (≈ 16 µg/mL)
[6]
  MIC: 26.3 µM (≈ 16 µg/mL)
[7]
  Ki: > 10000 nM
[8]
  Ki: 3160 nM

## NS(=O)(=O)c1ccc(CCNc2nc(NCC(O)CO)nc(Nc3ccc(C(=O)/C=C/c4ccccc4O)cc3)n2)cc1 (stereo not drawn) [compound 23, 23]
[1]
  MIC: 52.8 µM (≈ 32 µg/mL)
[2]
  Ki: > 10000 nM
[3]
  Ki: 88.7 nM
[4]
  MIC: 52.8 µM (≈ 32 µg/mL)
[5]
  MIC: 52.8 µM (≈ 32 µg/mL)
[6]
  MIC: 105 µM (≈ 63.6 µg/mL)
[7]
  Ki: > 10000 nM
[8]
  Ki: 83 nM

## NS(=O)(=O)c1ccc(CNc2nc(NCC(O)CO)nc(Nc3ccc(C(=O)/C=C/c4ccc(O)cc4)cc3)n2)cc1 (stereo not drawn) [compound 28, 28]
[9]
  MIC: > 444 µM
[6]
  MIC: > 444 µM
[10]
  MIC: > 444 µM
[11]
  MIC: > 444 µM
[12]
  Ki: 8220 nM
[13]
  Ki: 184 nM
[14]
  Ki: 594 nM
[15]
  Ki: 8460 nM
